This passage reports IC50, MIC and CC50 results from ChEMBL document CHEMBL1138996, “Biological evaluation of isothiazoloquinolones containing aromatic heterocycles at the 7-position: In vitro activity of a series of potent antibacterial agents that are effective against methicillin-resistant Staphylococcus aureus” (Bioorg Med Chem Lett, 2006).

The term IC50 denotes the concentration that gives 50% inhibition. Higher therefore signals lower potency. The CC50 is the concentration that lowers cell viability or growth by half. Low values mean harm at low concentration, high ones better tolerance by the cells.

≈ marks a conversion by molar mass, not a printed value.

In experiment [1] the target is DNA topoisomerase 4 subunit A (Staphylococcus aureus, UniProt P0C1U9). The experiment is described as follows: Inhibitory activity against Staphylococcus aureus ATCC 29213 wild type Topo 4.
In experiment [2] the test system is Moraxella catarrhalis. The experiment is described as follows: Antibacterial activity against Moraxella catarrhalis ATCC 8176. It counts as functional.
The subject of experiment [3] is Klebsiella pneumoniae. The experiment is described as follows: Antibacterial activity against Klebsiella pneumoniae ATCC 13883. Type of experiment: functional.
Experiment [4] has as its system Salmonella typhimurium. The experiment in a line: Antibacterial activity against Salmonella Typhimurium ATCC 14028. The settings on record: Salmonella enterica. Type of experiment: functional, Salmonella enterica subsp. enterica serovar Typhimurium.
For experiment [5], the system named is Enterococcus faecium. The experiment in a line: Antibacterial activity against Enterococcus faecium ATCC 49032. It counts as functional.
The test system of experiment [6] is Haemophilus influenzae. The experiment is described as follows: Antibacterial activity against Haemophilus influenzae type b ACH-0056. It counts as functional.
The subject of experiment [7] is Staphylococcus aureus. The experiment in a line: Antibacterial activity against Staphylococcus aureus ATCC 29213. It counts as functional.
The subject of experiment [8] is Staphylococcus aureus. The experiment in a line: Antibacterial activity against methicillin-resistant Staphylococcus aureus ATCC 700699. Type of experiment: functional.
The subject of experiment [9] is Streptococcus pneumoniae. The experiment in a line: Antibacterial activity against Streptococcus pneumoniae ATCC 49619. Type of experiment: functional.
In experiment [10] the test system is Escherichia coli. The experiment in a line: Antibacterial activity against Escherichia coli ATCC 25922. It counts as functional.
Experiment [11] deals with Streptococcus pyogenes. The experiment is described as follows: Antibacterial activity against Streptococcus pyogenes ATCC 19615. Type of experiment: functional.
Experiment [12] relates to Pseudomonas aeruginosa. The experiment is described as follows: Antibacterial activity against Pseudomonas aeruginosa ATCC 27853. It counts as functional.
In experiment [13] the test system is Stenotrophomonas maltophilia. The experiment in a line: Antibacterial activity against Stenotrophomonas maltophilia ATCC 13637. Type of experiment: functional.
The test system of experiment [14] is Enterococcus faecalis. The experiment in a line: Antibacterial activity against Enterococcus faecalis ATCC 29212. It counts as functional.
Experiment [15] relates to HEp-2. The experiment is described as follows: Cytotoxicity against Hep2 cell line. Type of experiment: functional. The settings on record: Homo sapiens.

Chain of DNA topoisomerase 4 subunit A (P0C1U9 whole entry): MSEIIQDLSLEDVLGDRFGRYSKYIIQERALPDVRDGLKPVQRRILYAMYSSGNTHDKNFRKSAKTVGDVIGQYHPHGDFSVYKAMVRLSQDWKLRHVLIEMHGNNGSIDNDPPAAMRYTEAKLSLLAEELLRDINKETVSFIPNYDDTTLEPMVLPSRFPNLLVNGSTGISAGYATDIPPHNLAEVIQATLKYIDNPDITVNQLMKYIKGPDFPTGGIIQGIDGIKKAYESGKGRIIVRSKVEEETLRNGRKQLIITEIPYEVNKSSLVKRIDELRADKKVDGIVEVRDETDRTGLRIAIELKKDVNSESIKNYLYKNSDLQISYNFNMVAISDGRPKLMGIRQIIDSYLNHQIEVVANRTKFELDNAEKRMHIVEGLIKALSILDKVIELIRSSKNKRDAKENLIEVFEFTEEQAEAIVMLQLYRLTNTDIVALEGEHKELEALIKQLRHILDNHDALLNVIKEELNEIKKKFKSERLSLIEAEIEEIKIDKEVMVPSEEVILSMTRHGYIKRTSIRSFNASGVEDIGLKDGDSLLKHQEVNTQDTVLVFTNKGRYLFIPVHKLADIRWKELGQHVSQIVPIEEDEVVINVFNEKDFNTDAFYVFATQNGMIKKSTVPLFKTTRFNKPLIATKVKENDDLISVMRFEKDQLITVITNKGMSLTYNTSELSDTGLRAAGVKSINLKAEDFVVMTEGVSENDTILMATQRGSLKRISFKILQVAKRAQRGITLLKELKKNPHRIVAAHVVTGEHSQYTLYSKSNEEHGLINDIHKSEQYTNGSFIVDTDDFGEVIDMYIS

`O=c1[nH]sc2c1c(=O)c1cc(F)c(-c3cccc4ncccc34)cc1n2C1CC1`: in experiment [1], the IC50 is 33 µM. The MIC in experiment [2] turned out to be 0.0081 µg/mL (≈ 0.0201 µM); in experiment [3] it was 0.5 µg/mL (≈ 1.24 µM); in experiment [4], 0.5 µg/mL (≈ 1.24 µM); in [5], 0.25 µg/mL (≈ 0.62 µM); in experiment [6], 0.028 µg/mL (≈ 0.0694 µM); in experiment [7], 0.016 µg/mL (≈ 0.0397 µM). For the same molecule, the MIC was 2 µg/mL (≈ 4.96 µM) in [8]; 0.061 µg/mL (≈ 0.151 µM) in experiment [9]; 0.016 µg/mL (≈ 0.0397 µM) in experiment [10]; 0.25 µg/mL (≈ 0.62 µM) in [11]; 2 µg/mL (≈ 4.96 µM) in experiment [12]; 4 µg/mL (≈ 9.91 µM) in [13]. Further, the MIC in experiment [14] came out at 0.125 µg/mL (≈ 0.31 µM).
In experiment [1], `Cc1cc(-c2cc3c(cc2F)c(=O)c2c(=O)[nH]sc2n3C2CC2)ccn1` had an IC50 of 26 µM. Also, the MIC was found to be 0.0037 µg/mL (≈ 0.0101 µM) in experiment [2]; 0.125 µg/mL (≈ 0.34 µM) in experiment [3]; 0.125 µg/mL (≈ 0.34 µM) in experiment [4]; 0.25 µg/mL (≈ 0.68 µM) in experiment [5]; 0.015 µg/mL (≈ 0.0408 µM) in [6]; 0.004 µg/mL (≈ 0.0109 µM) in experiment [7]. The MIC in experiment [8] is 0.5 µg/mL (≈ 1.36 µM); in experiment [9] it was 0.029 µg/mL (≈ 0.0789 µM); in experiment [10], 0.059 µg/mL (≈ 0.161 µM); in [11], 0.04 µg/mL (≈ 0.109 µM); in experiment [12], 2 µg/mL (≈ 5.44 µM); in [13], 1 µg/mL (≈ 2.72 µM). This molecule also displayed an MIC in [14] of 0.125 µg/mL (≈ 0.34 µM). Moreover, half-maximal cytotoxicity in experiment [15] (CC50) was put at 36 µM.
As to `COc1ncc(-c2cc3c(cc2F)c(=O)c2c(=O)[nH]sc2n3C2CC2)c(OC)n1`, 42 µM corresponded to half-maximal inhibition in experiment [1] (IC50). Also, the MIC in experiment [2] stood at 0.021 µg/mL (≈ 0.0507 µM); in experiment [3] it was 0.5 µg/mL (≈ 1.21 µM); in experiment [4], 0.125 µg/mL (≈ 0.302 µM); in experiment [5], 0.17 µg/mL (≈ 0.41 µM); in experiment [6], 0.14 µg/mL (≈ 0.338 µM); in experiment [7], 0.019 µg/mL (≈ 0.0458 µM). For the same molecule, the MIC in experiment [8] is 1 µg/mL (≈ 2.41 µM); in experiment [9], 0.079 µg/mL (≈ 0.191 µM); in experiment [10], 0.14 µg/mL (≈ 0.338 µM); in experiment [11], 0.079 µg/mL (≈ 0.191 µM); in [12], > 64 µg/mL; in [13] it was 2 µg/mL (≈ 4.83 µM). Also, the MIC in experiment [14] came out at 0.058 µg/mL (≈ 0.14 µM). For the same molecule, in experiment [15], the CC50 was > 100 µM.
For the molecule `COc1c(N2C[C@@H]3CCCN[C@@H]3C2)c(F)cc2c(=O)c(C(=O)O)cn(C3CC3)c12` [MOXIFLOXACIN], in experiment [1], 0.8 µM corresponded to half-maximal inhibition (IC50). For the same molecule, the MIC was 0.061 µg/mL (≈ 0.152 µM) in [2]; 0.031 µg/mL (≈ 0.0772 µM) in experiment [3]; 0.061 µg/mL (≈ 0.152 µM) in experiment [4]; 0.125 µg/mL (≈ 0.311 µM) in experiment [5]; 0.013 µg/mL (≈ 0.0324 µM) in [6]; 0.061 µg/mL (≈ 0.152 µM) in experiment [7]. Also, the MIC in experiment [8] worked out at 2 µg/mL (≈ 4.98 µM); in [9] it was 0.125 µg/mL (≈ 0.311 µM); in experiment [10] it was 0.013 µg/mL (≈ 0.0324 µM); in experiment [11], 0.061 µg/mL (≈ 0.152 µM); in experiment [12] it was 1 µg/mL (≈ 2.49 µM); in experiment [13] it was 0.031 µg/mL (≈ 0.0772 µM). For the same molecule, the MIC in experiment [14] turned out to be 0.125 µg/mL (≈ 0.311 µM). The CC50 in experiment [15] was > 100 µM.
In the case of `O=c1[nH]sc2c1c(=O)c1cc(F)c(-c3ccc(F)nc3)cc1n2C1CC1`, the IC50 in experiment [1] came to 12 µM. In addition, the MIC in experiment [2] is 0.0037 µg/mL (≈ 0.00996 µM); in experiment [3], 0.125 µg/mL (≈ 0.337 µM); in [4], 0.125 µg/mL (≈ 0.337 µM); in experiment [5] it was 0.11 µg/mL (≈ 0.296 µM); in [6], 0.03 µg/mL (≈ 0.0808 µM); in experiment [7] it was 0.015 µg/mL (≈ 0.0404 µM). Moreover, the MIC in [8] came to 2 µg/mL (≈ 5.39 µM); in [9], 0.125 µg/mL (≈ 0.337 µM); in experiment [10], 0.03 µg/mL (≈ 0.0808 µM); in [11], 0.059 µg/mL (≈ 0.159 µM); in experiment [12], 0.5 µg/mL (≈ 1.35 µM); in experiment [13] it was 1 µg/mL (≈ 2.69 µM). Moreover, the MIC in [14] was 0.125 µg/mL (≈ 0.337 µM). The CC50 in experiment [15] is > 100 µM.
